Test results published in US12215093B2, “Bicyclic carboxamides and methods of use thereof” (Tempest Therapeutics, Inc., priority 2018, dated 2025).

Key:
EP4 = biological target: T1, EP4 (Homo sapiens, UniProt P35408); test: Functional calcium flux assay, EP4; assay type: cell-based; details: stably transfected HEK293 cells; PGE2 10 nM; read-out: EP4 Ca2+-flux assay IC50
T1 construct: host or cells: stably transfected HEK293 cells co-expressing a promiscuous G protein and a clytin variant
Experimental: Each receptor subtype has an additional promiscuous G protein added in order to couple the aforementioned receptor to the calcium signaling pathway. The parental cell line used also expresses a novel variant of clytin, a calcium-activated photo-protein, to enable sensitive luminescent detection. Briefly, cells were plated at 50,000 cells-per-well in black, clear bottom 96-well plates. The plated cells were allowed to sit at room temperature for 30 min prior to transferring to a humidified, 37° C., 5% CO2 incubator for 18 to 24 h. Assay buffer (HBSS with 20 mM HEPES) and loading buffer (assay buffer plus 10 μM coelenterazine) were prepared on the day of the assay. Assays were performed by aspirating media from the assay plate and washing once with assay buffer, then replacing with loading buffer and allowing the cells to incubate for 1.5 h at room temperature. Compounds were prepared in assay buffer at a 3× final concentration in non-binding plates. Compounds were added to the cell plates and incubated for 30 min at room temperature. The prostanoid receptor ligand PGE2 was prepared at a 4× dilution ratio for a final concentration of 10 nM. Plates were run on a Flexstation™ using a 100 ms integration luminescence protocol for a total of 60 sec with ligand addition at 15 sec. Data were obtained from relative light units as measured by area under the curve.

[1] = Relative activity of resolved enantiomers/diastereomers (assay not stated); details: compared with the other eluting peak
EP2 = EP2 (Homo sapiens, UniProt P43116); test: cell-based;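 note: functional calcium flux assay in stably transfected HEK293 cells expressing EP2 coupled via a promiscuous G protein, clytin luminescence read as area under the curve, 30 min compound preincubation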
Sequence of EP2 (P43116 whole entry): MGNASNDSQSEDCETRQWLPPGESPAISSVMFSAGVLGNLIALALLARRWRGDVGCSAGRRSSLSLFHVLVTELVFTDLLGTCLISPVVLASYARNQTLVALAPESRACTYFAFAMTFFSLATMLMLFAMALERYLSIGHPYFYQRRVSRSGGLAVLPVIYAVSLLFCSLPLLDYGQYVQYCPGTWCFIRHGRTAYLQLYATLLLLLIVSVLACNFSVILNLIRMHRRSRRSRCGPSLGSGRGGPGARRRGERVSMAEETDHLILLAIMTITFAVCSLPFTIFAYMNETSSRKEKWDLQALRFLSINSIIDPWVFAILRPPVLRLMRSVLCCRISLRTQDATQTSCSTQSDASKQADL

T1 sequence (P35408 whole entry): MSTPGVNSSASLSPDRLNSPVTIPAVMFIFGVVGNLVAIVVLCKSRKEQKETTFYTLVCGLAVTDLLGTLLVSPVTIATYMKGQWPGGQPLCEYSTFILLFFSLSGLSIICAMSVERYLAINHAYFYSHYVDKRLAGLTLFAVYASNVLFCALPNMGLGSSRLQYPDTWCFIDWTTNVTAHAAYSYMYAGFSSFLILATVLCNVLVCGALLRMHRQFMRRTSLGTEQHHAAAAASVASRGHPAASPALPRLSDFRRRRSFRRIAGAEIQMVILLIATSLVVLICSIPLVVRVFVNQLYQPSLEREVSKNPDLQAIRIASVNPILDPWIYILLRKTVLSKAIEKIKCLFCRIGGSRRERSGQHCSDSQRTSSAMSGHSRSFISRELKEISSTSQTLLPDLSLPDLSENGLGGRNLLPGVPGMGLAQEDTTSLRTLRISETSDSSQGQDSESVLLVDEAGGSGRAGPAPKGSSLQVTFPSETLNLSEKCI

O=C(NC1CC2(C1)CC(C(=O)O)C2)c1ccc(F)c2ccn(Cc3ccc(OC(F)(F)F)cc3)c12 (stereo not drawn) [Example 8, (Sa)-6-(4-Fluoro-1-(4-(trifluoromethoxy)benzyl)-1H-indole-7-carboxamido)spiro[3.3]heptane-2-carboxylic acid]
IC50 (EP4): < 1 nM
more active enantiomer / diastereomer after chiral SFC resolution [1]: more active enantiomer
IC50 (EP2): 43 nM
